Reference: patent US12018059B2, “Human amylin analog polypeptides and methods of use” (Intarcia Therapeutics, Inc., priority 2018, dated 2024)
Starred links: 1 amine or outer side, 2 acyl side, 3 side chain; linkers in the order of their positions; H or OH if unused. Positions of bridges follow the written chain, without caps; N, C: chain ends. Non-standard residues stand in square brackets, D forms with d. Residues, ends and D or L forms follow the SMILES beside them. Groups on a side chain read outwards from the residue. *: point of attachment. γGlu = O=C(O)[C@H](CCC(=O)[*:2])N[*:1]; HOOC(CH2)6CO = O=C(O)CCCCCCC(=O)*; Palmitoyl = CCCCCCCCCCCCCCCC(=O)*; AEEA = NCCOCCOCC(=O)O

Assay: in vivo
Set-up: species or system Sprague-Dawley rats
Settings: rat, iv, 0.033 mg/kg
Method: Peptides were dissolved in sterile saline and administered as a 1-hour intravenous infusion to non-fasted male Sprague-Dawley rats (n=3 per group) via femoral vein cannula at a final dose of 0.033 mg/kg. […] Blood samples (approximately 250 μL) were collected for pharmacokinetic analysis via a jugular vein cannula at 0.25, 0.5, 0.75, 1, 1.17, 1.33, 1.5, 2, 4, 6, 8, 24, 30 and 48 hr post-start of infusion into microtainer tubes containing K2EDTA as anticoagulant and 25 μL of a protease inhibitor cocktail. Plasma was prepared by centrifugation and stored at −80° C. until analysis. The results of this analysis are shown in Table 9 and few exemplars in FIGS. 3a-3b. […]
A 60 μL aliquot of each plasma sample was placed into to a 96-well plate. To each well was added 6 μL of 0.5% Tween-20. Plates were then vortexed mixed for 10 minutes at 1200 rpm before 180 μL of 0.1% TFA in 2:1 ethanol:acetonitrile containing an appropriate internal standard was added to each well. Plates were vortex mixed for 5 min at 1300 rpm, and then centrifuged for 10 min at 2844×g. Supernatants (180 μL) were placed into a clean 96-well plate and evaporated under a nitrogen stream at 45° C. Residues were reconstituted in 80 μL of 20% acetonitrile (aq) containing 0.1% formic acid.
A […] aliquot of each plasma sample was diluted with […] of 10 mM ammonium acetate (pH 6.8) containing an appropriate internal standard and loaded onto an Oasis WCX microElution plate (Waters Corporation, Milford, MA) that had been pre-conditioned with […] of methanol and […] of deionized water. Samples were washed with […] of 5% ammonium hydroxide (aq) followed by […] of 20% acetonitrile in water. The analyte was eluted with […] of 5% formic acid in 75:25 acetonitrile:water. The eluent was dried under a nitrogen stream. Residues were reconstituted in 80 μL of 20% acetonitrile (aq) containing 0.1% formic acid.
All calibration standards were prepared in control rat plasma containing K2EDTA and protease inhibitor cocktail.
Samples and standards were analyzed by TurbolonSpray™ UPLC-MS/MS using a system consisting of a CTC HTS PAL auto-injector (Leap, Carrboro, NC), an Agilent Infinity 1290 system with column oven (Palo Alto, CA), a Valco switching valve (Houston, TX), and either an AB Sciex API 5600 TripleTOF™ or Sciex API 4000QTrap mass spectrometer (Framingham, MA). Samples were injected onto a 2.1×50 mm reverse phase C18 analytical column, typically a Waters CORTECS UPLC C18+, 1.6 μm (Waters Corporation, Milford, MA) or similar. […] Initial conditions consisted of 90% A and 10% B. The organic component was increased to 95% B over a period of 3-4 minutes, depending on the peptide. Typical flow rates were 600 μL/min. The column temperature was held constant at 40 or 50° C. Peptides were quantified by monitoring one or more product ions produced from a multiply charged parent ion.

| Vd [L/kg] | clearance [mL/min/kg] | half-life [h] | SMILES |
| --- | --- | --- | --- |
| 0.245 | 3.72 | 0.965 | CCCCCCCCCCCCCCCC(=O)N[C@@H](CCC(=O)NCCCC[C@H](NC(=O)[C@H](CC(C)C)NC(=O)[C@H](CCC(=O)O)NC(=O)[C@H](CC(N)=O)NC(=O)[C@H](C)NC(=O)[C@H](CC(C)C)NC(=O)[C@H](CCCNC(=N)N)NC(=O)[C@H](CCC(N)=O)NC(=O)[C@@H](NC(=O)[C@H](C)NC(=O)[C@@H]1CSSC[C@H](NC(=O)[C@@H](N)CO)C(=O)N[C@@H](CC(N)=O)C(=O)N[C@@H]([C@@H](C)O)C(=O)N[C@@H](CO)C(=O)N[C@@H]([C@@H](C)O)C(=O)N1)[C@@H](C)O)C(=O)N[C@@H](CCCCN)C(=O)N[C@@H](CO)C(=O)N[C@@H](CO)C(=O)N[C@@H](CC(N)=O)C(=O)N[C@@H](CC(N)=O)C(=O)N[C@@H](Cc1ccccc1)C(=O)NCC(=O)N1CCC[C@H]1C(=O)N[C@H](C(=O)N[C@@H](CC(C)C)C(=O)N1CCC[C@H]1C(=O)N1CCC[C@H]1C(=O)N[C@H](C(=O)N[C@@H](CCCCN)C(=O)N[C@H](C(=O)NCC(=O)N[C@@H](CO)C(=O)N[C@@H](CCC(=O)O)C(=O)N[C@H](C(=O)N[C@@H](Cc1ccc(O)cc1)C(N)=O)[C@@H](C)O)C(C)C)[C@@H](C)O)[C@@H](C)CC)C(=O)O [Compound A10] (H-SCNTSTCATQRLANELK([γGlu-Palmitoyl])KSSNNFGPILPPTKVGSETY-NH2; disulfide 2-7) |
| 0.252 | 1.55 | 2.47 | CCCCCCCCCCCCCCCC(=O)N[C@@H](CCC(=O)NCCOCCOCC(=O)NCCOCCOCC(=O)NCCCC[C@@H](NC(=O)[C@H](CCC(=O)O)NC(=O)[C@H](CC(N)=O)NC(=O)[C@H](C)NC(=O)[C@H](CC(C)C)NC(=O)[C@H](CCCNC(=N)N)NC(=O)[C@H](CCC(N)=O)NC(=O)[C@@H](NC(=O)[C@H](C)NC(=O)[C@@H]1CSSC[C@H](NC(=O)[C@@H](N)CO)C(=O)N[C@@H](CC(N)=O)C(=O)N[C@@H]([C@@H](C)O)C(=O)N[C@@H](CO)C(=O)N[C@@H]([C@@H](C)O)C(=O)N1)[C@@H](C)O)C(=O)N[C@@H](Cc1c[nH]cn1)C(=O)N[C@@H](CCCCN)C(=O)N[C@@H](CO)C(=O)N[C@@H](CO)C(=O)N[C@@H](CC(N)=O)C(=O)N[C@@H](CC(N)=O)C(=O)N[C@@H](Cc1ccccc1)C(=O)NCC(=O)N1CCC[C@H]1C(=O)N[C@H](C(=O)N[C@@H](CC(C)C)C(=O)N1CCC[C@H]1C(=O)N1CCC[C@H]1C(=O)N[C@H](C(=O)N[C@@H](CCCCN)C(=O)N[C@H](C(=O)NCC(=O)N[C@@H](CO)C(=O)N[C@@H](CCC(=O)O)C(=O)N[C@H](C(=O)N[C@@H](Cc1ccc(O)cc1)C(N)=O)[C@@H](C)O)C(C)C)[C@@H](C)O)[C@@H](C)CC)C(=O)O [Compound A12] (H-SCNTSTCATQRLANE[dK]([AEEA-AEEA-γGlu-Palmitoyl])HKSSNNFGPILPPTKVGSETY-NH2; disulfide 2-7; N-terminus assumed) |
| 0.163 | 0.183 | 11.3 | CCCCCCCCCCCCCCCC(=O)N[C@@H](CCC(=O)N[C@@H](CCC(=O)N[C@@H](CCC(=O)N[C@@H](CCC(=O)N[C@@H](CCC(=O)NCCCC[C@H](NC(=O)[C@H](CCC(=O)O)NC(=O)[C@H](CC(N)=O)NC(=O)[C@H](C)NC(=O)[C@H](CC(C)C)NC(=O)[C@H](CCCNC(=N)N)NC(=O)[C@H](CCC(N)=O)NC(=O)[C@@H](NC(=O)[C@H](C)NC(=O)[C@@H]1CSSC[C@H](NC(=O)[C@@H](N)CO)C(=O)N[C@@H](CC(N)=O)C(=O)N[C@@H]([C@@H](C)O)C(=O)N[C@@H](CO)C(=O)N[C@@H]([C@@H](C)O)C(=O)N1)[C@@H](C)O)C(=O)N[C@@H](Cc1c[nH]cn1)C(=O)N[C@@H](CCCCN)C(=O)N[C@@H](CO)C(=O)N[C@@H](CO)C(=O)N[C@@H](CC(N)=O)C(=O)N[C@@H](CC(N)=O)C(=O)N[C@@H](Cc1ccccc1)C(=O)NCC(=O)N1CCC[C@H]1C(=O)N[C@H](C(=O)N[C@@H](CC(C)C)C(=O)N1CCC[C@H]1C(=O)N1CCC[C@H]1C(=O)N[C@H](C(=O)N[C@@H](CCCCN)C(=O)N[C@H](C(=O)NCC(=O)N[C@@H](CO)C(=O)N[C@@H](CCC(=O)O)C(=O)N[C@H](C(=O)N[C@@H](Cc1ccc(O)cc1)C(N)=O)[C@@H](C)O)C(C)C)[C@@H](C)O)[C@@H](C)CC)C(=O)O)C(=O)O)C(=O)O)C(=O)O)C(=O)O [Compound A14] (H-SCNTSTCATQRLANEK([γGlu-γGlu-γGlu-γGlu-γGlu-Palmitoyl])HKSSNNFGPILPPTKVGSETY-NH2; disulfide 2-7) |
| 0.136 | 0.15 | 11.5 | CCCCCCCCCCCCCCCC(=O)N[C@@H](CCC(=O)N[C@@H](CCC(=O)N[C@@H](CCC(=O)NCCOCCOCC(=O)NCCOCCOCC(=O)N[C@@H](CCC(=O)NCCCC[C@H](NC(=O)[C@H](CCC(=O)O)NC(=O)[C@H](CC(N)=O)NC(=O)[C@H](C)NC(=O)[C@H](CC(C)C)NC(=O)[C@H](CCCNC(=N)N)NC(=O)[C@H](CCC(N)=O)NC(=O)[C@@H](NC(=O)[C@H](C)NC(=O)[C@@H]1CSSC[C@H](NC(=O)[C@@H](N)CO)C(=O)N[C@@H](CC(N)=O)C(=O)N[C@@H]([C@@H](C)O)C(=O)N[C@@H](CO)C(=O)N[C@@H]([C@@H](C)O)C(=O)N1)[C@@H](C)O)C(=O)N[C@@H](Cc1c[nH]cn1)C(=O)N[C@@H](CCCCN)C(=O)N[C@@H](CO)C(=O)N[C@@H](CO)C(=O)N[C@@H](CC(N)=O)C(=O)N[C@@H](CC(N)=O)C(=O)N[C@@H](Cc1ccccc1)C(=O)NCC(=O)N1CCC[C@H]1C(=O)N[C@H](C(=O)N[C@@H](CC(C)C)C(=O)N1CCC[C@H]1C(=O)N1CCC[C@H]1C(=O)N[C@H](C(=O)N[C@@H](CCCCN)C(=O)N[C@H](C(=O)NCC(=O)N[C@@H](CO)C(=O)N[C@@H](CCC(=O)O)C(=O)N[C@H](C(=O)N[C@@H](Cc1ccc(O)cc1)C(N)=O)[C@@H](C)O)C(C)C)[C@@H](C)O)[C@@H](C)CC)C(=O)O)C(=O)O)C(=O)O)C(=O)O [Compound A19] (H-SCNTSTCATQRLANEK([γGlu-AEEA-AEEA-γGlu-γGlu-γGlu-Palmitoyl])HKSSNNFGPILPPTKVGSETY-NH2; disulfide 2-7; N-terminus assumed) |

| SMILES | Vd [L/kg] | clearance [mL/min/kg] | half-life [h] |
| --- | --- | --- | --- |
| CC[C@H](C)[C@H](NC(=O)[C@@H]1CCCN1C(=O)CNC(=O)[C@H](Cc1ccccc1)NC(=O)[C@H](CC(N)=O)NC(=O)[C@H](CC(N)=O)NC(=O)[C@H](CO)NC(=O)[C@H](CO)NC(=O)[C@H](CCCCN)NC(=O)[C@H](Cc1c[nH]cn1)NC(=O)[C@H](CC(C)C)NC(=O)[C@H](CCCCNC(=O)CCCCCCC(=O)O)NC(=O)[C@H](CC(N)=O)NC(=O)[C@H](C)NC(=O)[C@H](CC(C)C)NC(=O)[C@H](CCCNC(=N)N)NC(=O)[C@H](CCC(N)=O)NC(=O)[C@@H](NC(=O)[C@H](C)NC(=O)[C@@H]1CSSC[C@H](NC(=O)[C@@H](N)CO)C(=O)N[C@@H](CC(N)=O)C(=O)N[C@@H]([C@@H](C)O)C(=O)N[C@@H](CO)C(=O)N[C@@H]([C@@H](C)O)C(=O)N1)[C@@H](C)O)C(=O)N[C@@H](CC(C)C)C(=O)N1CCC[C@H]1C(=O)N1CCC[C@H]1C(=O)N[C@H](C(=O)N[C@@H](CCCCN)C(=O)N[C@H](C(=O)NCC(=O)N[C@@H](CO)C(=O)N[C@@H](CCC(=O)O)C(=O)N[C@H](C(=O)N[C@@H](Cc1ccc(O)cc1)C(N)=O)[C@@H](C)O)C(C)C)[C@@H](C)O [Compound A18] (H-SCNTSTCATQRLANK(HOOC(CH2)6CO)LHKSSNNFGPILPPTKVGSETY-NH2; disulfide 2-7) | 0.805 | 19.4 | 0.508 |
